The experiment deals with T1, Human plasma kallikrein (Homo sapiens, UniProt P03952).
T1 construct: yields a heavy chain (371 amino acids) and a light chain (248 amino acids); purchased Enzyme Research Laboratories
The experiment is described as follows: Kallikrein Assay (fluorogenic substrate hydrolysis, AFC release). The settings on record: purified Human plasma kallikrein 0.5 nM; substrate Acetyl-K—P—R-AFC 100 mM; 50 mM HEPES pH 7.4. The format is biochemical. The method, then:
The effectiveness of a compound of the present invention as an inhibitor of Kallikrein can be determined using a relevant purified serine protease, and an appropriate synthetic substrate. The rate of hydrolysis of the chromogenic or fluorogenic substrate by the relevant serine protease was measured both in the absence and presence of compounds of the present invention. Assays were conducted at room temperature or at 37° C. […] A decrease in the rate of fluorescence change in the presence of inhibitor is indicative of enzyme inhibition. Such methods are known to one skilled in the art. The results of this assay are expressed as the half-maximal inhibitory concentrations (IC50), or the inhibitory constant, Ki.
Kallikrein determinations were made in 50 mM HEPES buffer at pH 7.4 containing 150 mM NaCl, 5 mM CaCl2), and 0.1% PEG 8000 (polyethylene glycol; Fisher Scientific). Determinations were made using purified Human plasma kallikrein at a final concentration of 0.5 nM (Enzyme Research Laboratories) and the synthetic substrate, Acetyl-K—P—R-AFC (Sigma #C6608) at a concentration of […].
Activity assays were performed by diluting a stock solution of substrate at least tenfold to a final concentration ≤0.2 Km into a solution containing enzyme or enzyme equilibrated with inhibitor. Times required to achieve equilibration between enzyme and inhibitor were determined in control experiments. The reactions were performed under linear progress curve conditions and fluorescence increase measured at 405 Ex/510 Em nm. Values were converted to percent inhibition of the control reaction (after subtracting 100% Inhibition value). IC50 was determined by inflection point from a four parameter logistic curve fit. Ki was calculated using the Cheng Prusoff equation, Ki=IC50/(1+([S]/Km)).

T1 sequence (P03952 391-638 limits assumed): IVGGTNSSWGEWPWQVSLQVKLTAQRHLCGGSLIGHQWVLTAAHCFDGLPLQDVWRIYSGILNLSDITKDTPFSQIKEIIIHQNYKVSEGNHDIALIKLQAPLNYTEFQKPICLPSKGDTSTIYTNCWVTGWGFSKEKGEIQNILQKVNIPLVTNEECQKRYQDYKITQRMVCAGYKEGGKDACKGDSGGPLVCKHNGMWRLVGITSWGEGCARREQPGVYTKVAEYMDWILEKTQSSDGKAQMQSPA
T1 sequence (P03952 20-390 partner limits assumed): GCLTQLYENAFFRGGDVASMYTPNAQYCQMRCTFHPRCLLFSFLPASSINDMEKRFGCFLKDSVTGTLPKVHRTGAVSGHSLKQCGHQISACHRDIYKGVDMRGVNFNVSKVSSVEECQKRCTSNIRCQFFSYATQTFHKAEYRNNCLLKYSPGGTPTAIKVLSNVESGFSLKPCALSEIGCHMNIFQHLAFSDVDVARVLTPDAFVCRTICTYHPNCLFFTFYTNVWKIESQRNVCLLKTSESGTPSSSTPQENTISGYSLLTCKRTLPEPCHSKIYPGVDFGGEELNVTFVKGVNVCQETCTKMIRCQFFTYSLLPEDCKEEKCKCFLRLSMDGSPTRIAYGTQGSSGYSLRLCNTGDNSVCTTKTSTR

With `Cc1cc(N2C[C@H]3C[C@H]3C2=O)cnc1C(C)n1cc(C(=O)N[C@H]2C[C@@H](c3cc(Cl)ccc3C#N)C2)cn1` (single isomer, unassigned) [Example 24, N-((cis)-3-(5-chloro-2-cyanophenyl)cyclobutyl)-1-((R or S)-1-(3-methyl-5-((1R,5S)-2-oxo-3-azabicyclo[3.1.0]hexan-3-yl)pyridin-2-yl)ethyl)-1H-pyrazole-4-carboxamide], half-maximal inhibition (IC50) required 5.1 nM. For the compound `Cc1cc(N2C[C@H]3C[C@H]3C2=O)cnc1C(C)n1cc(C(=O)N[C@H]2C[C@@H](c3cc(Cl)ccc3C#N)C2)cn1` (single isomer, unassigned) [Example 25, N-((cis)-3-(5-chloro-2-cyanophenyl)cyclobutyl)-1-((S or R)-1-(3-methyl-5-((1R,5S)-2-oxo-3-azabicyclo[3.1.0]hexan-3-yl)pyridin-2-yl)ethyl)-1H-pyrazole-4-carboxamide], the IC50 (usually the point on the concentration scale where inhibition reaches its midpoint) stood at 25.3 nM.

As for `CC(c1ncc(N2C[C@H]3C[C@H]3C2=O)cc1F)n1cc(C(=O)N[C@H]2C[C@@H](c3cc(Cl)ccc3C#N)C2)cn1` (single isomer, unassigned) [Example 26, N-((cis)-3-(5-chloro-2-cyanophenyl)cyclobutyl)-1-((R or S)-1-(3-fluoro-5-((1R,5S)-2-oxo-3-azabicyclo[3.1.0]hexan-3-yl)pyridin-2-yl)ethyl)-1H-pyrazole-4-carboxamide], the IC50 worked out at 3.7 nM. Under `CC(c1ncc(N2C[C@H]3C[C@H]3C2=O)cc1F)n1cc(C(=O)N[C@H]2C[C@@H](c3cc(Cl)ccc3C#N)C2)cn1` (single isomer, unassigned) [Example 27, N-((cis)-3-(5-chloro-2-cyanophenyl)cyclobutyl)-1-((S or R)-1-(3-fluoro-5-((1R,5S)-2-oxo-3-azabicyclo[3.1.0]hexan-3-yl)pyridin-2-yl)ethyl)-1H-pyrazole-4-carboxamide] stands 18.6 nM; under `Cc1c(C(C)n2cc(C(=O)N[C@H]3C[C@@H](c4cc(Cl)ccc4C#N)C3)cn2)cnc(N2C[C@H]3C[C@H]3C2=O)c1F` (single isomer, unassigned) [Example 28, N-((cis)-3-(5-chloro-2-cyanophenyl)cyclobutyl)-1-((R or S)-1-(5-fluoro-4-methyl-6-((1R,5S)-2-oxo-3-azabicyclo[3.1.0]hexan-3-yl)pyridin-3-yl)ethyl)-1H-pyrazole-4-carboxamide], 0.2 nM; under `Cc1c(C(C)n2cc(C(=O)N[C@H]3C[C@@H](c4cc(Cl)ccc4C#N)C3)cn2)cnc(N2C[C@H]3C[C@H]3C2=O)c1F` (single isomer, unassigned) [Example 29, N-((cis)-3-(5-chloro-2-cyanophenyl)cyclobutyl)-1-((S or R)-1-(5-fluoro-4-methyl-6-((1R,5S)-2-oxo-3-azabicyclo[3.1.0]hexan-3-yl)pyridin-3-yl)ethyl)-1H-pyrazole-4-carboxamide], 1.6 nM. In the case of `Cc1cc(C(C)n2cc(C(=O)N[C@H]3C[C@@H](c4cc(Cl)ccc4C#N)C3)cn2)nnc1N1C[C@H]2C[C@H]2C1=O` (single isomer, unassigned) [Example 30, N-((cis)-3-(5-chloro-2-cyanophenyl)cyclobutyl)-1-((R or S)-1-(5-methyl-6-((1R,5S)-2-oxo-3-azabicyclo[3.1.0]hexan-3-yl)pyridazin-3-yl)ethyl)-1H-pyrazole-4-carboxamide] it was 2.4 nM; in that of `Cc1cc(C(C)n2cc(C(=O)N[C@H]3C[C@@H](c4cc(Cl)ccc4C#N)C3)cn2)nnc1N1C[C@H]2C[C@H]2C1=O` (single isomer, unassigned) [Example 31, N-((cis)-3-(5-chloro-2-cyanophenyl)cyclobutyl)-1-((S or R)-1-(5-methyl-6-((1R,5S)-2-oxo-3-azabicyclo[3.1.0]hexan-3-yl)pyridazin-3-yl)ethyl)-1H-pyrazole-4-carboxamide], 7.3 nM.

Consider `Cc1ccnc([C@H]2C[C@@H](NC(=O)c3cnn(C(C)c4cnc(N5C[C@H]6C[C@H]6C5=O)cc4C)c3)C2)c1` (single isomer, unassigned) [Example 32, 1-((R or S)-1-(4-methyl-6-((1R,5S)-2-oxo-3-azabicyclo[3.1.0]hexan-3-yl)pyridin-3-yl)ethyl)-N-((cis)-3-(4-methylpyridin-2-yl)cyclobutyl)-1H-pyrazole-4-carboxamide], for which 11.1 nM corresponded to half-maximal inhibition (IC50). In the case of `Cc1ccnc([C@H]2C[C@@H](NC(=O)c3cnn(C(C)c4cnc(N5C[C@H]6C[C@H]6C5=O)cc4C)c3)C2)c1` (single isomer, unassigned) [Example 33, 1-((S or R)-1-(4-methyl-6-((1R,5S)-2-oxo-3-azabicyclo[3.1.0]hexan-3-yl)pyridin-3-yl)ethyl)-N-((cis)-3-(4-methylpyridin-2-yl)cyclobutyl)-1H-pyrazole-4-carboxamide] it was 84.4 nM; in that of `Cc1cc(N2C[C@H]3C[C@H]3C2=O)ncc1C(C)n1cc(C(=O)N[C@H]2C[C@@H](c3cc(F)ccc3C#N)C2)cn1` (single isomer, unassigned) [Example 34, N-((cis)-3-(2-cyano-5-fluorophenyl)cyclobutyl)-1-((R or S)-1-(4-methyl-6-((1R,5S)-2-oxo-3-azabicyclo[3.1.0]hexan-3-yl)pyridin-3-yl)ethyl)-1H-pyrazole-4-carboxamide], 5.1 nM; in that of `Cc1cc(N2C[C@H]3C[C@H]3C2=O)ncc1C(C)n1cc(C(=O)N[C@H]2C[C@@H](c3cc(F)ccc3C#N)C2)cn1` (single isomer, unassigned) [Example 35, N-((cis)-3-(2-cyano-5-fluorophenyl)cyclobutyl)-1-((S or R)-1-(4-methyl-6-((1R,5S)-2-oxo-3-azabicyclo[3.1.0]hexan-3-yl)pyridin-3-yl)ethyl)-1H-pyrazole-4-carboxamide], 102 nM. In the case of `Cc1ccc(C#N)c([C@H]2C[C@@H](NC(=O)c3cnn(C(C)c4cnc(N5C[C@H]6C[C@H]6C5=O)cc4C)c3)C2)c1` (single isomer, unassigned) [Example 36, N-((cis)-3-(2-cyano-5-methylphenyl)cyclobutyl)-1-((R or S)-1-(4-methyl-6-((1R,5S)-2-oxo-3-azabicyclo[3.1.0]hexan-3-yl)pyridin-3-yl)ethyl)-1H-pyrazole-4-carboxamide], inhibition was half-maximal at 1.1 nM (IC50). In the case of `Cc1c(C(C)n2cc(C(=O)N[C@H]3C[C@@H](c4cc(Cl)ccc4C#N)C3)cn2)cnc(N2C[C@H]3C[C@H]3C2=O)c1C` (single isomer, unassigned) [Example 39, N-((cis)-3-(5-chloro-2-cyanophenyl)cyclobutyl)-1-((R or S)-1-(4,5-dimethyl-6-((1R,5S)-2-oxo-3-azabicyclo[3.1.0]hexan-3-yl)pyridin-3-yl)ethyl)-1H-pyrazole-4-carboxamide], the IC50 is 0.3 nM. In turn, `Cc1c(C(C)n2cc(C(=O)N[C@H]3C[C@@H](c4cc(Cl)ccc4C#N)C3)cn2)cnc(N2C[C@H]3C[C@H]3C2=O)c1C` (single isomer, unassigned) [Example 40, N-((cis)-3-(5-chloro-2-cyanophenyl)cyclobutyl)-1-((S or R)-1-(4,5-dimethyl-6-((1R,5S)-2-oxo-3-azabicyclo[3.1.0]hexan-3-yl)pyridin-3-yl)ethyl)-1H-pyrazole-4-carboxamide] registered an IC50 of 0.7 nM.

The compound `Cc1c(C(C)n2cc(C(=O)N[C@H]3C[C@@H](c4cc(Cl)ccc4C#N)C3)cn2)nnc(N2C[C@H]3C[C@H]3C2=O)c1C` (single isomer, unassigned) [Example 41, N-((cis)-3-(5-chloro-2-cyanophenyl)cyclobutyl)-1-((R or S)-1-(4,5-dimethyl-6-((1R,5S)-2-oxo-3-azabicyclo[3.1.0]hexan-3-yl)pyridazin-3-yl)ethyl)-1H-pyrazole-4-carboxamide] displayed an IC50 of 15.8 nM. Turning to `Cc1c(C(C)n2cc(C(=O)N[C@H]3C[C@@H](c4cc(Cl)ccc4C#N)C3)cn2)nnc(N2C[C@H]3C[C@H]3C2=O)c1C` (single isomer, unassigned) [Example 42, N-((cis)-3-(5-chloro-2-cyanophenyl)cyclobutyl)-1-((S or R)-1-(4,5-dimethyl-6-((1R,5S)-2-oxo-3-azabicyclo[3.1.0]hexan-3-yl)pyridazin-3-yl)ethyl)-1H-pyrazole-4-carboxamide], the IC50 came to 0.3 nM.

As to `COc1c(N2C[C@H]3C[C@H]3C2=O)ncc(C(C)n2cc(C(=O)N[C@H]3C[C@@H](c4cc(Cl)ccc4C#N)C3)cn2)c1C` (single isomer, unassigned) [Example 43, N-((cis)-3-(5-chloro-2-cyanophenyl)cyclobutyl)-1-((R or S)-1-(5-methoxy-4-methyl-6-((1R,5S)-2-oxo-3-azabicyclo[3.1.0]hexan-3-yl)pyridin-3-yl)ethyl)-1H-pyrazole-4-carboxamide], the IC50 was determined as 1.8 nM.

With `COc1c(N2C[C@H]3C[C@H]3C2=O)ncc(C(C)n2cc(C(=O)N[C@H]3C[C@@H](c4cc(Cl)ccc4C#N)C3)cn2)c1C` (single isomer, unassigned) [Example 44, N-((cis)-3-(5-chloro-2-cyanophenyl)cyclobutyl)-1-((S or R)-1-(5-methoxy-4-methyl-6-((1R,5S)-2-oxo-3-azabicyclo[3.1.0]hexan-3-yl)pyridin-3-yl)ethyl)-1H-pyrazole-4-carboxamide], the IC50 worked out at 0.2 nM.
